This is an account of results in patent US11447638B2, “Acetalanthraquinone derivatives useful for cellular staining” (BIOSTATUS LIMITED, priority 2016, dated 2022).

Structures are written as SMILES.

Test [1] concerns fixed human osteosarcoma U-2 OS cells. Put plainly: Labelling of fixed cells, wide-field fluorescence microscopy. The class given is cell-based. The following applies: 20 μM, 1 h exposure in PBS, FIG. 2. As for the experimental part:
Cells were seeded in a 24 well coverslip bottomed-plate, cultured overnight in McCoys media. 24 or 48 hours later the cells were washed gently with 3×2 mL PBS per well. The PBS was removed and 0.5 mL of 4% paraformaldehyde solution [a 4% paraformaldehyde solution in PBS was made fresh each time from a 16% stock solution (Thermo Fisher Scientific)] was added in each well and cells were incubated for 30 min. The paraformaldehyde was removed and cells were washed 3×2 mL PBS per well. 1 mL of PBS or HEPES was added to each well.
Before analysis, cells were incubated at 37° C. in the dark for the period designated. Samples were analysed directly without any further washing step. For live cell labelling cells were seeded, plated in a similar way, into a similar multi-well dish for optimal optical performance and could be used across all microscope platforms.
This basic protocol was the standard for testing the patterns of AAQ agents at 20 μM, compared to 20 μM of DRAQ5 as the benchmark reference (both in terms of cellular location and ability to detect the red fluorescence).
Low resolution wide-field fluorescence microscopy was used to evaluate cell labelling in fixed human osteosarcoma U-2 OS cells. The system was an Axiovert 100 microscope (Carl Zeiss, Welwyn Garden City, UK) ×10 0.3 NA air objective lens and an ORCA-ER CCD camera (Hamamatsu, Reading, UK). Illumination was controlled by a shutter in front of the transmission lamp. Image capture was controlled using Metamorph software. This evaluates the ability of the compounds to label cellular compartments without active uptake or efflux prohibiting delivery into the given cell. Image collection was performed after 1 h of exposure to probes in PBS. The calibration bar represents 50 μm.

For another test, the system named is A549 live cells. Put plainly: Loading of A549 live cells, wide-field fluorescence microscopy. The format is cell-based, human. Conditions: 20 μM, 30 min incubation, FIG. 3. In outline: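 Live A549 cells incubated 30 min at 37° C. in the dark with compound at 20 μM (DRAQ5 at 20 μM as reference), imaged unwashed. Uptake and localisation of red fluorescence assessed by low-resolution wide-field fluorescence microscopy, ×10 0.3 NA objective, 30 ms exposure.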

In the next test the test system is U-2 OS cells. Kind of test: Confocal laser scanning microscopy (CLSM) localisation analysis. The following applies: 30 min incubation, Ex 637 nm, Em >665 nm; for subcellular localisation by CLSM: FIG. 4 and 5. The class given is cell-based, human. In outline:
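Live U-2 OS cells imaged by confocal microscopy after 30 min incubation with probe compound, excitation 637 nm, emission >665 nm, at several z depths with solution background removed. Sections merged into maximum projections; per-cell nucleus/cytoplasm fluorescence ratio used as index of DNA binding.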

A further test relates to MCF7. Put plainly: MTT cellular viability (growth inhibition) assay, MCF7. Conditions: Homo sapiens, 0.25-100 μM, 72 h, Table 3. The class given is cell-based. A digest of the protocol:
(§1)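 Cells seeded at 1×10^4 cells/mL in R10, allowed to adhere overnight at 37 °C, 5% CO2. Compounds tested at 0.25–100 μM for 72 h; MTT read-out gave growth-inhibition IC50.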

For another test, the system named is A549. Kind of test: MTT cellular viability (growth inhibition) assay, A549. The format is cell-based. Conditions: Homo sapiens, 0.25-100 μM, 72 h, Table 3. A digest of the protocol: as §1

As to `COC(CNC(=O)CCNc1ccc(NCCN(C)C)c2c1C(=O)c1ccccc1C2=O)OC` [BST-109, N-(2,2-Dimethoxyethyl)-3-(4-(2-(dimethylamino)ethylamino)-9,10-dioxo-9,10-dihydroanthracen-1-ylamino)propanamide], the “staining pattern in fixed cells” value in test [1] is “heterogeneity in cytoplasmic staining and positive spots in the nuclei”. Also, in the test on A549 live cells, the “fluorescence brightness / background in live cells” value is recorded as “very bright cellular fluorescence”. Moreover, in the test on U-2 OS cells, the “specific feature of localisation by CLSM” value is “whole cell staining”; the “subcellular localisation by CLSM” value is “strong nuclear uptake and perinuclear staining, with possible ER accumulation”. For the same compound, in the test on MCF7, inhibition was half-maximal at 15.7 µM (IC50). In the test with A549, this compound came in with an IC50 of 22.5 µM.
Take `COC(CC(=O)NCCNc1ccc(NCCN(C)C)c2c1C(=O)c1ccccc1C2=O)OC` [BST-110, N-(2-(4-(2-(dimethylamino)ethylamino)-9,10-dioxo-9,10-dihydroanthracen-1-ylamino)ethyl)-3,3-dimethoxypropanamide]: in test [1], the “fluorescence brightness / background in fixed cells” value was “very high background fluorescence”; the “staining pattern in fixed cells” value was “cytoplasmic staining and heterogeneity on labelling of mitotic figures”. Further, the “fluorescence brightness / background in live cells” value in the test on A549 live cells is “very bright cellular fluorescence”. In the test on U-2 OS cells, the “specific feature of localisation by CLSM” value is “whole cell staining”; the “subcellular localisation by CLSM” value was “strong nuclear uptake and perinuclear staining, with possible ER accumulation”. In the test on MCF7, this compound showed an IC50 of 19.5 µM. Besides, half-maximal inhibition in the test with A549 (IC50) required 22.3 µM.
